Assay results taken from patent US20080188439A1, “Directed metabolism of compounds by glucuronidation and sulfonation donors to decrease toxicity” (priority 2006, published 2008).

Key:
[1] = cited from earlier work
[2] = cited from earlier work; remark: listed apart in the source
C57B16/J male mice [3] = conditions: APAP 4 mMol/kg (600 mg/kg) IP plus 0.2 ml physiological saline; three of eight animals
C57B16/J male mice [4] = test: Dose-response of APAP toxicity (LD60) in mice; type: in vivo
Protocol: In prior experiments in the laboratory, the LD60, of APAP was determined to be about 600 mgs/kg. The molecular weight of APAP is 151; therefore, the LD60, was about 4 mMol/Kg.

[5] = test system: UDP-glucose dehydrogenase; conditions: UDP-glucose dehydrogenase reaction; cited from earlier work

| SMILES | share of circulating acetaminophen undergoing Phase II glucuronide conjugation ([1]; adult, normal (non-saturated) conditions) | share of circulating acetaminophen undergoing Phase II sulfonate conjugation ([1]; adult) | share of circulating acetaminophen undergoing Phase I metabolism by cytochrome P-450 enzymes ([1]; normal conditions) | median half-life after an overdose ([2]; 112 patients, overdose) | time of maximal blood concentrations after ingestion ([2]; human, oral) | experimental half-life (t0.5 β) ([2]; human, single oral dose of 1-3 gms) | volume of distribution ([2]; human) | share of a therapeutic dose biotransformed in the liver ([2]; therapeutic dose) | share of the toxic dose excreted in the first 24 hours ([2]; toxic dose, first 24 hours) | survival at 24 hours, APAP/saline (control group) (C57B16/J male mice [3]) | LD60 (C57B16/J male mice [4]; converted with molecular weight 151) | LD60 (C57B16/J male mice [4]; prior experiments in the laboratory) | Km [5] |
| --- | --- | --- | --- | --- | --- | --- | --- | --- | --- | --- | --- | --- | --- |
| CC(=O)Nc1ccc(O)cc1 [APAP, N-acetyl-p-aminophenol] | approximately 55% | approximately 30% | Five | 5.4 h | 20 to 80 min | 105 to 160 min | approximately 0.95 L/Kg | 95% | over 90% | 37.5% | about 4 mMol/Kg | about 600 mgs/kg |  |
| NC(=O)c1ccc[n+]([C@@H]2O[C@H](COP(=O)([O-])OP(=O)(O)OC[C@H]3O[C@@H](n4cnc5c(N)ncnc54)[C@H](O)[C@@H]3O)[C@@H](O)[C@H]2O)c1 [NAD^+, nicotinamide adenine dinucleotide] |  |  |  |  |  |  |  |  |  |  |  |  | 424 µM |
